According to ChEMBL document CHEMBL4825760, “Interleukin-17A Peptide Aptamers with an Unexpected Binding Moiety Selected by cDNA Display under Heterogenous Conditions” (ACS Med Chem Lett, 2021):
The source made the active and inactive calls. No cut-off for these calls is given here. *1 amine or outer side, *2 acyl side, *3 side chain or, on linkers, in order; H or OH if unused. Where a SMILES comes first, the peptide text is derived from it. Bridges are numbered along the chain shown (N, C = ends). oXylylene = c1ccc(C[*:2])c(C[*:1])c1

Experiments:
[1] = molecular target: T1, Interleukin-17A (Homo sapiens, UniProt Q16552); assay: Binding affinity to human IL-17A assessed as dissociation constant in PBS-T measured after 60 mins by Biolayer interferometry
T1 sequence (Q16552 whole entry): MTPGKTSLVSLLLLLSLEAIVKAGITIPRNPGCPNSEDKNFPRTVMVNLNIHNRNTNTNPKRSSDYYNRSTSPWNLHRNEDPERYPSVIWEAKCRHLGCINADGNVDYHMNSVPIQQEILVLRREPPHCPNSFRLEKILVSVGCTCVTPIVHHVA

[2] = molecular target: T2, Interleukin-17A (Mus musculus) (UniProt Q62386); assay: Binding affinity to mouse IL-17A
T2 sequence (whole entry): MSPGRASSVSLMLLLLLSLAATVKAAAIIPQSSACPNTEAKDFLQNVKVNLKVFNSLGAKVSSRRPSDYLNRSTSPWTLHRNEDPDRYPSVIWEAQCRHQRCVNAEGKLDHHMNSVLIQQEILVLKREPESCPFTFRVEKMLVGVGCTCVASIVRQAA

[3] = molecular target: T3, Interleukin-17F (Homo sapiens) (UniProt Q96PD4); assay: Binding affinity to human IL-17F
T3 sequence (whole entry): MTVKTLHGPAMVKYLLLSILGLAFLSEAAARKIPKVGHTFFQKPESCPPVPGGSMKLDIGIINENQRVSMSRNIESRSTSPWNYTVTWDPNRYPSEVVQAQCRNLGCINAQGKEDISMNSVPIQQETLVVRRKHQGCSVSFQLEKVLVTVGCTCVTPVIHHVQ

[4] = Stability of the compound in 50% human serum assessed as compound decomposition incubated for 24 hrs by SDS-PAGE analysis
[5] = molecular target: T1, Interleukin-17A; assay: Binding affinity to biotinylated human IL-17A by SPR analysis

Row | SMILES | Kd [1] | metabolised at 24 h [4] | also measured
1 | CC(C)C[C@H](NC(=O)[C@H](C)NC(=O)[C@@H](NC(=O)[C@H](CC(C)C)NC(=O)[C@H](CC(C)C)NC(=O)[C@H](CCC(=O)O)NC(=O)[C@@H](N)CS)[C@@H](C)O)C(=O)NCC(=O)N[C@@H](Cc1ccc(O)cc1)C(=O)N1CCC[C@H]1C(=O)N[C@H](C(=O)N[C@@H](Cc1ccc(O)cc1)C(=O)N[C@@H](CS)C(=O)O)C(C)C (H-CELLTALGYPVYC-OH) | Not Active |  | 
2 | CC(C)C[C@H](NC(=O)[C@H](CCC(=O)O)NC(=O)[C@@H](N)CS)C(=O)N[C@@H](CC(C)C)C(=O)N[C@H](C(=O)N[C@@H](Cc1ccccc1)C(=O)N[C@@H](C)C(=O)NCC(=O)N[C@@H](Cc1ccc(O)cc1)C(=O)N1CCC[C@H]1C(=O)N[C@H](C(=O)N[C@@H](Cc1ccc(O)cc1)C(=O)N[C@@H](CS)C(=O)O)C(C)C)[C@@H](C)O (H-CELLTFAGYPVYC-OH) | Not Active |  | 
3 | CC(C)C[C@H](NC(=O)[C@H](Cc1ccccc1)NC(=O)[C@@H](NC(=O)[C@H](CC(C)C)NC(=O)[C@H](CC(C)C)NC(=O)[C@H](CCC(=O)O)NC(=O)[C@@H](N)CS)[C@@H](C)O)C(=O)NCC(=O)N[C@@H](Cc1ccc(O)cc1)C(=O)N1CCC[C@H]1C(=O)N[C@H](C(=O)N[C@@H](Cc1ccc(O)cc1)C(=O)N[C@@H](CS)C(=O)O)C(C)C (H-CELLTFLGYPVYC-OH) |  | 9.5% | Activity [2]: Active; Activity [3]: inactive
4 | CC(C)C[C@@H]1NC(=O)[C@H](Cc2ccccc2)NC(=O)[C@H]([C@@H](C)O)NC(=O)[C@H](CC(C)C)NC(=O)[C@H](CC(C)C)NC(=O)[C@H](CCC(=O)O)NC(=O)[C@@H](N)CSCc2ccccc2CSC[C@@H](C(=O)O)NC(=O)[C@H](Cc2ccc(O)cc2)NC(=O)[C@H](C(C)C)NC(=O)[C@@H]2CCCN2C(=O)[C@H](Cc2ccc(O)cc2)NC(=O)CNC1=O (H-CELLTFLGYPVYC-OH; linker 1-13 via oXylylene) |  | 30.5% | 
5 | CC(C)C[C@@H]1NC(=O)[C@H](Cc2ccccc2)NC(=O)[C@H]([C@@H](C)O)NC(=O)[C@H](CC(C)C)NC(=O)[C@H](CC(C)C)NC(=O)[C@H](CCC(=O)O)NC(=O)[C@@H](NC(=O)[C@H](CO)NC(=O)CN)CSSC[C@@H](C(=O)NCC(=O)NCC(=O)NCC(=O)N[C@@H](CO)C(=O)N[C@@H](Cc2cnc[nH]2)C(=O)N[C@@H](Cc2cnc[nH]2)C(=O)N[C@@H](Cc2cnc[nH]2)C(=O)N[C@@H](Cc2cnc[nH]2)C(=O)N[C@@H](Cc2cnc[nH]2)C(=O)N[C@@H](Cc2cnc[nH]2)C(=O)O)NC(=O)[C@H](Cc2ccc(O)cc2)NC(=O)[C@H](C(C)C)NC(=O)[C@@H]2CCCN2C(=O)[C@H](Cc2ccc(O)cc2)NC(=O)CNC1=O (H-GSCELLTFLGYPVYCGGGSHHHHHH-OH; disulfide 3-15) |  |  | Kd [5]: Not Active
